Data on one compound can be found in US20230271947A1, “SALT AND CRYSTAL FORM OF KETOHEXOKINASE INHIBITOR AND USE THEREOF” (SHANDONG XUANZHU PHARMA CO., LTD., priority 2020, published 2023).

This assay relates to D-Fructose-induced fructose-1-phosphate in HepG2 cells. The assay is described as follows: In vitro cell inhibitory activity test: D-Fructose-induced fructose-1-phosphate in HepG2 cells (LC-MS). Format: cell-based. Particulars: D-Fructose 3 h, read-out: EC50 (nM), inhibition of D-Fructose-induced fructose-1-phosphate. The method, then: 1) HepG2 cells in logarithmic growth phase were collected and counted by using a […]. Cell viability was detected by trypan blue exclusion method to ensure that the cell viability was above 90%.
2) A concentration of the HepG2 cells was adjusted, and 81 µL of FBS-free basal medium (starvation treated) cell suspension was added to each 96-well plate with a testing well cell inoculation quantity of 5 × 10^4.
3) The HepG2 cells in the 96-well plates were cultured overnight at 37° C., 5% CO2, and 95% humidity.
1) Before dosing, 9 µL of FBS was added into testing wells of the 96-well plate, and the starvation treatment was stopped.
2) A 10-fold compound solution was prepared, with the highest concentration of 100 µM, 8 concentrations and 3-fold gradient dilution. 10 µL of drug solution was added to each well of the 96-well plate inoculated with the cells, and three repeated wells were set for each drug concentration. 10 µL of 1% DMSO solution was added to the solvent control group, and three repeated wells were set.
3) The cells in the 96-well plates added with the drug were incubated at 37° C., 5% CO2, and 95% humidity for 30 min.
4) A 11-fold D-Fructose solution was prepared, with a concentration of 220 mM. […]
Data were analyzed by GraphPad Prism 5.0 software, a dose-effect curve was obtained by using nonlinear S-curve regression, and the EC50 value was calculated.

As usually defined, the EC50 is the concentration that produces a half-maximal response. As for `C[C@H]1CCN1c1nc(N2C[C@@H]3[C@@H](CC(=O)O)[C@@H]3C2)cc(C(F)(F)F)n1` [PF-06835919], the EC50 was 169 nM.
